Data reported in patent US20060014740A1 (priority 2003, published 2006).
Counter-ions that a name gives are not always drawn. Like-named read-outs stand apart in the source and are kept apart here.

Columns and labels:
Assay type in all cases: cell-based
[1] = system: RH7777 rat hepatoma cells; experiment: SRB cytotoxicity assay, RH7777 control cell line; details: read-out: IC50 RH7777
Procedure: (§1) For in vitro cytotoxicity screening, 1000 to 5000 cells were plated into each well of 96-well plates depending on growth rate, and exposed to different concentrations of a test compound for 96 h in three to five replicates. All the compounds were dissolved in dimethyl sulfoxide at 5 to 20 mM, and diluted to desired concentrations in complete culture medium. Cell numbers at the end of the drug treatment were measured by the SRB assay (Gududuru et al., “Synthesis and Biological Evaluation of Novel Cytotoxic Phospholipids for Prostate Cancer,” Bioorg. Med. Chem. Lett. 14:4919-4923 (2004); Rubinstein et at., “Comparison of in vitro Anticancer-Drug-Screening Data Generated with a Tetrazolium Assay Versus a Protein Assay Against a Diverse Panel of Human Tumor Cell Lines,” J. Naatl, Cancer Inst. 82:1113-1118 (1990), each of which is hereby incorporated by reference in its entirety). Briefly, the cells were fixed with 10% of trichloroacetic acid, stained with 0.4% SRB, and the absorbances at 540 nm was measured using a plate reader (DYNEX Technologies, Chantilly, Va.).
(§2) The antiproliferative activity of all the synthesized compounds was evaluated against five human prostate cancer cell lines and in RH7777 cells (negative control) using the sulforhodamine B (SRB) assay (see description in Example 5 above).
(§3) The chosen cell lines represent different basal levels of active AKT and LPL receptor expression (discussed later). Cells were exposed to a wide range of concentrations (0 to 100 μM) of the indicated compound for 96 h. Cell numbers at the end of treatment were measured using the sulforhodamine B (SRB) assay^5.
(§4) Cells were exposed to a wide range of concentrations (0 to 100 μM) of the particular compound for 96 h in 96 well plates. Cells were fixed with 10% trichloroacetic acid, washed five times with water. The plates were air dried overnight and fixed cells were stained with SRB solution. The cellular protein-bound SRB was measured at 540 nm using a plate reader. Cell numbers at the end of the treatment were measured.
as §4, with “96-well” for “96 well”, “calculated as a percentage of untreated control.” for “measured.”

[2] = system: LNCaP human prostate cancer cells; experiment: SRB cytotoxicity assay, LNCaP; details: for IC50: read-out: IC50 LNCaP
Procedure: as §1, §2, §3, §4
as §4, with “96-well” for “96 well”, “calculated as a percentage of untreated control.” for “measured.”

[3] = system: DU-145 human prostate cancer cells; experiment: SRB cytotoxicity assay, DU-145
Procedure: as §1, §2, §3, §4
as §4, with “96-well” for “96 well”, “calculated as a percentage of untreated control.” for “measured.”

[4] = system: TSU-Pr1 human prostate cancer cells; experiment: SRB cytotoxicity assay, TSU-Pr1
Procedure: (§5) Dr. Mitchell Steiner at University of Tennessee Health Science Center, kindly provided PPG-1 and TSU-PrI cells.
as §1, §2, §3, §4
as §4, with “96-well” for “96 well”, “calculated as a percentage of untreated control.” for “measured.”

[5] = system: PC-3 human prostate cancer cells; experiment: SRB cytotoxicity assay, PC-3; details: for IC50: read-out: IC50 PC-3
Procedure: as §1, §2, §3, §4
as §4, with “96-well” for “96 well”, “calculated as a percentage of untreated control.” for “measured.”

[6] = system: PPC-1 human prostate cancer cells; experiment: SRB cytotoxicity assay, PPC-1; details: read-out: IC50 PPC-1
Procedure: as §5, §1, §2, §3, §4
as §4, with “96-well” for “96 well”, “calculated as a percentage of untreated control.” for “measured.”

[7] = system: human breast cancer cell line (MCF-7); experiment: SRB cytotoxicity assay, MCF-7; details: read-out: IC50 MCF-7
Procedure: as §1
In vitro cytotoxicity assay was performed by the same sulforhodamine B (SRB) assay (described above). The compounds shown in Table 8 below where tested for activity against the breast cancer and ovarian cancer cell lines.
as §3, §4

[8] = Rattus norvegicus, RH7777, Example 11 table, 96 h
[9] = Homo sapiens, LNCaP, Example 11 table, 96 h
[10] = Homo sapiens, DU-145, Example 11 table, 96 h, read-out: IC50 DU145
[11] = Homo sapiens, TSU-Pr1, Example 11 table, 96 h, read-out: IC50 TSU-Pr1
[12] = Homo sapiens, Example 11 table, 96 h
[13] = Homo sapiens, PPC-1, Example 11 table, 96 h
[14] = Homo sapiens, MCF7, Example 11 table, 96 h
[15] = Rattus norvegicus, RH7777, Table 3, control cell line, 96 h
[16] = Homo sapiens, LNCaP, Table 3, 96 h
[17] = Homo sapiens, DU-145, read-out: IC50 DU-145, Table 3, 96 h
[18] = Homo sapiens, PPC-1, Table 3, 96 h
[19] = Homo sapiens, MCF7, Table 8, breast cancer cell line

CCCCCCCCCCCCC1N[C@H](C(=O)O)CS1 (some centres unmarked)
IC50 [1, 8]: > 20 µM | IC50 [2, 9]: 16.1 µM | IC50 [3, 10]: ~20 µM | IC50 [4, 11]: ~20 µM | IC50 [5, 12]: ~20 µM | IC50 [6, 13]: 12.6 µM | IC50 [7, 14]: 16.3 µM

CCCCCCCCCCCCC1OC[C@@H](COP(=O)(O)O)O1.N.N (some centres unmarked)
IC50 ([1]; Example 11 table, 96 h): > 100 µM | IC50 LNCaP ([2]; Example 11 table, 96 h): No toxicity | IC50 ([3]; Example 11 table, 96 h, read-out: IC50 DU145): > 100 µM | IC50 ([4]; Example 11 table, 96 h, read-out: IC50 TSU-Pr1): > 100 µM | IC50 PC-3 ([5]; Example 11 table, 96 h): No toxicity | IC50 ([6]; Example 11 table, 96 h): > 100 µM | IC50 ([7]; Example 11 table, 96 h): > 100 µM

O=C(O)[C@@H]1CSC(c2ccc(-c3ccccc3)cc2)N1 (some centres unmarked)
IC50 [1, 8]: > 100 µM | IC50 [2, 9]: 71 µM | IC50 [3, 10]: > 100 µM | IC50 [4, 11]: ~100 µM | IC50 [5, 12]: > 100 µM | IC50 [6, 13]: > 100 µM | IC50 [7, 14]: > 100 µM

COc1ccc(C2N[C@H](C(=O)O)CS2)cc1 (some centres unmarked)
IC50 ([1]; Rattus norvegicus, RH7777, 96 h): > 100 µM | IC50 ([2]; Homo sapiens, LNCaP, 96 h): ~50 µM | IC50 ([3]; Homo sapiens, DU-145, 96 h, read-out: IC50 DU145): ~100 µM | IC50 ([4]; Homo sapiens, TSU-Pr1, 96 h, read-out: IC50 TSU-Pr1): > 100 µM | IC50 ([5]; Homo sapiens, 96 h): > 100 µM | IC50 ([6]; Homo sapiens, PPC-1, 96 h): > 100 µM | IC50 ([7]; Homo sapiens, MCF7, 96 h): ~100 µM

O=C(O)[C@@H]1CSC(c2cc(F)cc(F)c2)N1 (some centres unmarked)
IC50 [1, 8]: > 100 µM | IC50 [2, 9]: > 100 µM | IC50 [3, 10]: > 100 µM | IC50 [4, 11]: > 100 µM | IC50 [5, 12]: > 100 µM | IC50 [6, 13]: > 100 µM | IC50 [7, 14]: > 100 µM

N#Cc1ccc(C2N[C@H](C(=O)O)CS2)cc1 (some centres unmarked)
IC50 [1, 8]: > 100 µM | IC50 [2, 9]: > 100 µM | IC50 [3, 10]: > 100 µM | IC50 [4, 11]: > 100 µM | IC50 [5, 12]: > 100 µM | IC50 [6, 13]: > 100 µM | IC50 [7, 14]: > 100 µM

O=C(O)[C@@H]1CSC(c2ccc(F)cc2)N1 (some centres unmarked)
IC50 [1, 8]: > 100 µM | IC50 [2, 9]: > 100 µM | IC50 [3, 10]: > 100 µM | IC50 [4, 11]: > 100 µM | IC50 [5, 12]: > 100 µM | IC50 [6, 13]: > 100 µM | IC50 [7, 14]: > 100 µM

O=C(O)[C@@H]1CSC(c2c(Cl)cccc2Cl)N1 (some centres unmarked)
IC50 [1, 8]: > 100 µM | IC50 [2, 9]: > 100 µM | IC50 [3, 10]: > 100 µM | IC50 [4, 11]: > 100 µM | IC50 [5, 12]: > 100 µM | IC50 [6, 13]: > 100 µM | IC50 [7, 14]: > 100 µM

O=C(O)[C@@H]1CSC(c2cccnc2)N1 (some centres unmarked)
IC50 [1, 8]: > 100 µM | IC50 [2, 9]: > 100 µM | IC50 [3, 10]: > 100 µM | IC50 [4, 11]: ~100 µM | IC50 [5, 12]: > 100 µM | IC50 [6, 13]: > 100 µM | IC50 [7, 14]: > 100 µM

CC(C)(C)OC(=O)N[C@H](CO)C(=O)NCCCCCCCCCCCCNC(=O)[C@@H](CO)NC(=O)OC(C)(C)C
IC50 [1, 8]: 8.5 µM | IC50 [2, 9]: 12.5 µM | IC50 [3, 10]: > 20 µM | IC50 [4, 11]: 3.7 µM | IC50 [5, 12]: > 20 µM | IC50 [6, 13]: > 20 µM | IC50 [7, 14]: 10.6 µM

CCCCCCCCCCCCCCCCCCNC(=O)[C@@H]1CSC(CCCCCCCCCCCC)N1 (mixture of isomers) [Compound 7, (2RS, 4R)-2-Dodecylthiazolidine-4-carboxylic acid octadecylamide]
IC50 [1, 15]: ~20 µM | IC50 [2, 16]: 11.9 µM | IC50 [3, 17]: 8.9 µM | IC50 ([4]; Homo sapiens, TSU-Pr1, Table 3, 96 h, read-out: IC50 TSU-Pr1): 10.7 µM | IC50 ([5]; Homo sapiens, Table 3, 96 h): 15 µM | IC50 [6, 18]: 13 µM | IC50 [7, 19]: 10.4 µM

CCCCCCCCCCCCCCCCCCNC(=O)[C@@H]1CSC(c2ccc(OC)cc2)N1 (mixture of isomers) [Compound 15-HCI, (2RS, 4R)-2-(4-Methoxy-phenyl)-thiazolidine-4-carboxylic acid octadecylamide Hydrochloride]
IC50 [1, 15]: > 20 µM | IC50 [2, 16]: 2.1 µM | IC50 [3, 17]: 8.7 µM | IC50 ([5]; Homo sapiens, Table 3, 96 h): ~20 µM | IC50 [6, 18]: 1.5 µM | IC50 [7, 19]: 16.3 µM

CCCCCCCCCCCCCCCCCCCNC(=O)[C@@H]1CSC(c2ccccc2)N1 (mixture of isomers) [Compound 6-HCI, (2RS, 4R)-2-Phenylthiazolidine-4-carboxylic acid nonadecylamide Hydrochloride]
IC50 ([2]; Table 3, 96 h): 13.6 µM | IC50 ([3]; read-out: IC50 DU-145, Table 3, 96 h): > 20 µM | IC50 ([4]; Table 3, 96 h, read-out: IC50 TSU-Pr1): > 20 µM | IC50 ([6]; Table 3, 96 h): 16.8 µM | IC50 ([7]; Table 8, breast cancer cell line): > 20 µM

CCCCCCCCCCCCCCCCCCNC(=O)[C@@H]1CSC(c2cccc(O)c2)N1 (mixture of isomers) [Compound 14, (2RS, 4R)-2-(3-Hydroxy-phenyl)-thiazolidine-4-carboxylic add octadecylamide]
IC50 ([1]; Table 3, control cell line, 96 h): 31 µM

CCCCCCCCCCCCCCCCCCNC(=O)[C@@H]1CSC(c2ccc(C#N)cc2)N1 (mixture of isomers) [Compound 22, (2RS, 4R)-2-(4-Cyano-phenyl)-thiazolidine-4-carboxylic acid octadccylamide]
IC50 ([1]; Table 4, control cell line, 96 h): > 20 µM | IC50 ([5]; Table 4, 96 h): > 20 µM

O=c1[nH]cc(F)c(=O)[nH]1 [5-FU, 5-fluorouracil, reference compound]
IC50 ([2]; Homo sapiens, LNCaP, Example 10 table, 96 h): 4.9 µM | IC50 ([2]; Homo sapiens, LNCaP, Table 6): 4.9 µM

COc1ccc(CCNC(=O)CN2C(=O)CSC2c2ccccc2)c(OC)c1 (centres unmarked) [Compound 78]
IC50 ([1]; Table 6, control cell line): > 100 µM | IC50 ([2]; Table 6): > 100 µM | IC50 ([3]; read-out: IC50 DU-145, Table 6): > 100 µM | IC50 ([4]; Table 6, read-out: IC50 TSU-Pr1): > 100 µM | IC50 ([5]; Table 6): > 100 µM | IC50 ([6]; Table 6): > 100 µM

CCCCCCCCCCCCCCCCCCNCCN1C(=O)CSC1c1ccccc1 (centres unmarked) [Compound 79, 3-(2-(octadecylamino)ethyl)-2-phenylthiazolidin-4-one]
IC50 ([1]; Rattus norvegicus, RH7777, Table 7, control cell line): > 20 µM | IC50 ([2]; Homo sapiens, LNCaP, Table 7): > 20 µM | IC50 ([3]; Homo sapiens, DU-145, read-out: IC50 DU-145, Table 7): 15.8 µM | IC50 ([4]; Homo sapiens, TSU-Pr1, Table 7, read-out: IC50 TSU): 6.1 µM | IC50 ([5]; Homo sapiens, Table 7): > 20 µM | IC50 ([6]; Homo sapiens, PPC-1, Table 7): 12 µM

CCCCCCCCCCCCCCCCCCCCNCC(CO)NC (centres unmarked) [S3]
IC50 ([2]; Example 10 table, 96 h): 3.3 µM | IC50 ([7]; Example 10 table, 96 h): 2.9 µM

CCCCCCCCCCCCCCCCCCNCC(CO)NC (centres unmarked) [compound 318]
IC50 ([2]; Table 9, 96 h): 3.3 µM

CCCCCCCCCCCCCCCCCCNC[C@@H](N)CO [drawing 52]
IC50 [2, 9]: 3.3 µM | IC50 [7, 14]: 2.9 µM
